In US10253039B2, “Inhibitors of bacterial DNA gyrase with efficacy against gram-negative bacteria” (priority 2014, dated 2019):
In brackets after ≈: the same amount, converted by molar mass. Where two headings read alike, the source gives them in different places.

Tests used:
Salmonella typhimurium = assay: MIC, microdilution in 96-well plates; conditions: Salmonella enterica
[1] = tested on: E. coli BW25113 ΔtolC cipR isolate GyrB Ser464Phe; assay: MIC against ciprofloxacin-resistant mutant; conditions: Escherichia coli, BW25113
Description: (§2) A microdilution method in 96-well plates was used and the MIC protocol established by the Clinical Laboratory Standards Institute was followed. From a growing subculture, a 1:10000 inoculum of each strain in Luria-Bertani media was prepared and aliquoted 100 μL in 4 columns of wells, except for the top row wells, which contained 200 μL of inoculum. […] The liquid in each of wells was mixed with a multi-channel pipet and 100 μL was transferred to the next well and mixed. The 2-fold dilution was continued down the 96-well plate until 100 μL was left, which was discarded. The plates were incubated at 37° C. with shaking for 16-18 hours. The MIC was determined as the lowest concentration that inhibited growth and had no turbidity by visual inspection.

[2] = tested on: E. coli BW25113 ΔtolC cipR isolate GyrA Asp87Gly; assay: MIC against ciprofloxacin-resistant mutant; conditions: Escherichia coli, BW25113
Description: as §2

[3] = tested on: gyramide A resistant mutants of E. coli; assay: MIC against gyramide A resistant mutants compared to parent strain; conditions: ratio to MIC of parent strain E. coli BW25113 ΔtolC
Description: as §2

[4] = tested on: E. coli BW25113 ΔtolC gyrR isolate GyrA His45Tyr; assay: MIC against gyramide-resistant mutant; conditions: Escherichia coli, BW25113
Description: as §2

wild-type E. coli = assay: Killing / inhibition of wild-type E. coli; format: cell-based, Escherichia coli
Description: The compounds of the invention are observed to inhibit wild-type E. coli.

Enterobacter aerogenes = assay: MIC, microdilution in 96-well plates; format: cell-based; conditions: Klebsiella aerogenes, Enterobacter aerogenes, read-out: MIC
In short: (§1)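 Growth inhibition was scored after overnight culture (16-18 hours, 37° C., shaking) by looking for turbidity; the first clear well in a triplicate 2-fold compound series defined the MIC. Strains were inoculated at 1:10000 into LB.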

Pseudomonas aeruginosa = assay: MIC, microdilution in 96-well plates; format: cell-based; conditions: read-out: MIC
In short: as §1

Acinetobacter baumannii = assay: MIC, microdilution in 96-well plates; format: cell-based; conditions: read-out: MIC
In short: as §1

E. coli BW25113 = assay: MIC, microdilution in 96-well plates; format: cell-based; conditions: Escherichia coli, BW25113, E. coli BW25113, read-out: MIC
In short: as §1

Edwardsiella tarda = assay: MIC, microdilution in 96-well plates; format: cell-based; conditions: read-out: MIC
In short: as §1

Klebsiella pneumonia = assay: MIC, microdilution in 96-well plates; conditions: Klebsiella pneumoniae
[5] = Table 7, separate set of experiments

SMILES: N#Cc1cccc(S(=O)(=O)N[C@@H]2CCN(Cc3ccc(-c4ccccc4)cc3)C2)c1 [Gyramide C2, gyramide C2]
- MIC (Salmonella typhimurium; with PAβN (60 μM)): 2.5 µM (≈ 1.04 µg/mL)
- MIC (Salmonella typhimurium; without PAβN): > 640 µM
- MIC [1]: 0.4 µM (≈ 0.167 µg/mL)
- MIC [2]: 0.8 µM (≈ 0.334 µg/mL)
- MIC against gyramide A resistant mutants compared to the parent strain [3]: > 200 times
- MIC [4]: > 25.6 µM
- concentration observed to kill wild-type E. coli (wild-type E. coli): 20 µM
- MIC (Enterobacter aerogenes; [5]): > 16 µg/mL
- MIC (Enterobacter aerogenes; with PAβN (60 μM)): 10 µM
- MIC (Enterobacter aerogenes; without PAβN): > 640 µM
- MIC (Pseudomonas aeruginosa; [5]): > 16 µg/mL
- MIC (Pseudomonas aeruginosa; with PAβN (60 μM)): 20 µM
- MIC (Pseudomonas aeruginosa; without PAβN): > 640 µM
- MIC (Acinetobacter baumannii; [5]): > 16 µg/mL
- MIC (Acinetobacter baumannii; with PAβN (60 μM)): 40 µM
- MIC (Acinetobacter baumannii; without PAβN): > 640 µM
- MIC (E. coli BW25113; [5]): 16 µg/mL
- MIC (E. coli BW25113; without PAβN): 20 µM
- MIC (Edwardsiella tarda; [5]): 16 µg/mL
- MIC (Edwardsiella tarda; with PAβN (60 μM)): 20 µM
- MIC (Edwardsiella tarda; without PAβN): > 640 µM
- MIC (Klebsiella pneumonia; with PAβN (60 μM)): 20 µM (≈ 8.35 µg/mL)
- MIC (Klebsiella pneumonia; without PAβN): > 640 µM
